The text below walks through data of US20250136619A1, “HETEROBIFUNCTIONAL COMPOUNDS AND THEIR USE IN TREATING DISEASE” (HALDA THERAPEUTICS OPCO, INC., priority 2021, published 2025).

Read-outs that look alike come from different tables or passages of the source. Bounds are passed on as bounds.

For one experiment, the target named is mTOR (Homo sapiens (Human), UniProt P42345). Nature of the experiment: KdELECT assay for binding affinity to mTOR. The procedure: (§1) Compounds were tested using a KdELECT assay. Kinase-tagged T7 phage strains were prepared in an E. coli host derived from the BL21 strain. E. coli were grown to log-phase and infected with T7 phage and incubated with shaking at 32° C. until lysis. The lysates were centrifuged and filtered to remove cell debris. The remaining kinases were produced in HEK-293 cells and subsequently tagged with DNA for qPCR detection. Streptavidin-coated magnetic beads were treated with biotinylated small molecule ligands for 30 minutes at room temperature to generate affinity resins for kinase assays. The liganded beads were blocked with excess biotin and washed with blocking buffer (SeaBlock (Pierce), 1% BSA, 0.05% Tween 20, 1 mM DTT) to remove unbound ligand and to reduce non-specific binding. Binding reactions were assembled by combining kinases, liganded affinity beads, and test compounds in 1×binding buffer (20% SeaBlock, 0.17×PBS, 0.05% Tween 20, 6 mM DTT). Test compounds were prepared as 111X stocks in 100% DMSO. Kd values were determined using an 11-point 3-fold compound dilution series with three DMSO control points. All compounds for Kd measurements are distributed by acoustic transfer (non-contact dispensing) in 100% DMSO. The compounds were then diluted directly into the assays such that the final concentration of DMSO was 0.9%. All reactions performed in polypropylene 384-well plate. Each was a final volume of 0.02 mL. The assay plates were incubated at room temperature with shaking for 1 hour and the affinity beads were washed with wash buffer (1×PBS, 0.05% Tween 20). The beads were then re-suspended in elution buffer (1×PBS, 0.05% Tween 20, 0.5 μM nonbiotinylated affinity ligand) and incubated at room temperature with shaking for 30 minutes. The kinase concentration in the eluates was measured by qPCR.

Another experiment deals with BTK (Homo sapiens (Human), UniProt Q06187). Nature of the experiment: KdELECT assay for binding affinity to BTK. On the procedure:
as §1, with “1× binding” for “1×binding”

The test system of a further experiment is HeLa cells. The experiment is described as follows: Cellular growth inhibition assay (CellTiter-Glo), HeLa cells. The settings on record: HeLa cells, three days of compound treatment, CellTiter-Glo 2.0, read-out: CTG HELA GI50. Type of experiment: cell-based. Put shortly: (§2)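 HeLa or HEK293 cells in DMEM with 10% FBS exposed to titrated compound for three days at 37 °C, 5% CO2, 24 h after seeding. Viability by CellTiter-Glo 2.0 luminescence, normalized to DMSO Day 0 and Day 3 readings; four-parameter fit gives GI50.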
Background: ATP-based viability assays read luminescence as a measure of living cells.

Another experiment has as its system HEK293 cells. Nature of the experiment: Cellular growth inhibition assay (CellTiter-Glo), HEK293 cells. The settings on record: HEK293 cells, three days of compound treatment, CellTiter-Glo 2.0, read-out: CTG HEK293 GI50. Type of experiment: cell-based. Put shortly: as §2
The next experiment concerns the target CDK9 (Homo sapiens (Human), UniProt P50750). The experiment is described as follows: KdELECT assay for binding affinity to CDK9. On the procedure:
as §1, with “KdELECT.” for “KdELECT assay.”

Sequence of BTK (Q06187 whole entry): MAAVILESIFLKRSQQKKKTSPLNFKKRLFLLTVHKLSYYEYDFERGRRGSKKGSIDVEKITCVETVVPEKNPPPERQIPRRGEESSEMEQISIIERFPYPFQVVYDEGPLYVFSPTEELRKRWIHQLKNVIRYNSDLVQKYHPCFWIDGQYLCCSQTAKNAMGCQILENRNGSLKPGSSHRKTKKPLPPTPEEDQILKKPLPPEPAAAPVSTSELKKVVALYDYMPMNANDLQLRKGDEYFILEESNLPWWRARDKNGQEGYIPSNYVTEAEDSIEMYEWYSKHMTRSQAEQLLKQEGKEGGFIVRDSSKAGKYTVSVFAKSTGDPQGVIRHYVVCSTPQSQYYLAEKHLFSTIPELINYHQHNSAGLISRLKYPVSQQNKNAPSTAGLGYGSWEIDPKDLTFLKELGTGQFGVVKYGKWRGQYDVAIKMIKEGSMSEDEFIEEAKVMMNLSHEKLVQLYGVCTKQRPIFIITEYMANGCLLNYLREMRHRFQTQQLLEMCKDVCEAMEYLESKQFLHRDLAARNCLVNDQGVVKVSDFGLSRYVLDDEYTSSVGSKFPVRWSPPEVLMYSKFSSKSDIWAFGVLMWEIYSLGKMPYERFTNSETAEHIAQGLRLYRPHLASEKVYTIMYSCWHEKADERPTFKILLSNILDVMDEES
Sequence of CDK9 (P50750 whole entry): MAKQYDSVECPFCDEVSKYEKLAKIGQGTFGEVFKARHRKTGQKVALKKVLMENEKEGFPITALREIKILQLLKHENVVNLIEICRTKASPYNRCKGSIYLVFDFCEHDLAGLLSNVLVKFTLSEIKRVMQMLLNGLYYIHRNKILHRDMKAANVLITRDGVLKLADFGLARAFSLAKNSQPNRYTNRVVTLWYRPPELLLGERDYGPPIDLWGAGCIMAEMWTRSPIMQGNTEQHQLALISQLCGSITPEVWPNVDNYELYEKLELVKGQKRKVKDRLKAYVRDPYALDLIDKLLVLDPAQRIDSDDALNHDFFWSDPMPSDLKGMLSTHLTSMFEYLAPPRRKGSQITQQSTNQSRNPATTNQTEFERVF

For orientation: Kd means the equilibrium constant for the complex coming apart. Consider `Nc1nc2cc(-c3nn(CCCCC(=O)NCCCCCCCC/C=C/C(=O)N4CCC[C@@H](n5nc(-c6ccc(Oc7ccccc7)cc6)c6c(N)ncnc65)C4)c4ncnc(N)c34)ccc2o1` [Compound I-2, 5-[4-amino-3-(2-amino-1,3-benzoxazol-5-yl)pyrazolo[3,4-d]pyrimidin-1-yl]-N—[(E)-11-[(3R)-3-[4-amino-3-(4-phenoxyphenyl)pyrazolo[3,4-d]pyrimidin-1-yl]-1-piperidyl]-11-oxo-undec-9-enyl]pentanamide], for which the dissociation constant Kd on mTOR fell in the range of 500 to 2500 nM.
As to `C[C@@H]1COCCN1c1nc(N2CCOC[C@H]2C)c2ccc(-c3cccc(C(=O)NCCOCCOCCOCCOC/C=C/C(=O)N4CCC[C@@H](n5nc(-c6ccc(Oc7ccccc7)cc6)c6c(N)ncnc65)C4)c3)nc2n1` [Compound I-3, N-[2-[2-[2-[2-[(E)-4-[(3R)-3-[4-amino-3-(4-phenoxyphenyl)pyrazolo[3,4-d]pyrimidin-1-yl]-1-piperidyl]-4-oxo-but-2-enoxy]ethoxy]ethoxy]ethoxy]ethyl]-3-[2,4-bis[(3R)-3-methylmorpholin-4-yl]pyrido[2,3-d]pyrimidin-7-yl]benzamide], the Kd at BTK and on mTOR was 50 to 500 nM in each case.
On to `C[C@@H]1COCCN1c1nc(N2CCOC[C@H]2C)c2ccc(-c3cccc(C(=O)NCCOCCOCCOCCOCCOCCOCCOCCOC/C=C/C(=O)N4CCC[C@@H](n5nc(-c6ccc(Oc7ccccc7)cc6)c6c(N)ncnc65)C4)c3)nc2n1` [Compound I-5, N-[2-[2-[2-[2-[2-[2-[2-[2-[(E)-4-[(3R)-3-[4-amino-3-(4-phenoxyphenyl)pyrazolo[3,4-d]pyrimidin-1-yl]-1-piperidyl]-4-oxo-but-2-enoxy]ethoxy]ethoxy]ethoxy]ethoxy]ethoxy]ethoxy]ethoxy]ethyl]-3-[2,4-bis[(3R)-3-methylmorpholin-4-yl]pyrido[2,3-d]pyrimidin-7-yl]benzamide], for which the Kd on BTK is below 50 nM; at mTOR, 50 to 500 nM.
The corresponding values for `C[C@@H]1COCCN1c1nc(N2CCOC[C@H]2C)c2ccc(-c3cccc(C(=O)NCCCCCCCC/C=C/C(=O)N4CCC[C@@H](n5nc(-c6ccc(Oc7ccccc7)cc6)c6c(N)ncnc65)C4)c3)nc2n1` [Compound I-7, N—[(E)-11-[(3R)-3-[4-amino-3-(4-phenoxyphenyl)pyrazolo[3,4-d]pyrimidin-1-yl]-1-piperidyl]-11-oxo-undec-9-enyl]-3-[2,4-bis[(3R)-3-methylmorpholin-4-yl]pyrido[2,3-d]pyrimidin-7-yl]benzamide] are 50 to 500 nM and 50 to 500 nM.
In turn, `C[C@@H]1COCCN1c1nc(N2CCOC[C@H]2C)c2ccc(-c3cccc(C(=O)NCCOCCOCCOCCOCCOCCOCCOCCOCCOc4ccc(C(=O)N[C@H]5C(C)(C)[C@H](Oc6ccc(C#N)c(Cl)c6)C5(C)C)cc4)c3)nc2n1` [Compound I-9, N-[2-[2-[2-[2-[2-[2-[2-[2-[2-[4-[[3-(3-chloro-4-cyano-phenoxy)-2,2,4,4-tetramethyl-cyclobutyl]carbamoyl]phenoxy]ethoxy]ethoxy]ethoxy]ethoxy]ethoxy]ethoxy]ethoxy]ethoxy]ethyl]-3-[2-[(3R)-3-methylmorpholin-4-yl]-4-(3-methylmorpholin-4-yl)pyrido[2,3-d]pyrimidin-7-yl]benzamide] returned an equilibrium dissociation constant (Kd) at mTOR below 50 nM.
The same measure, in the same setting: the same measure for `C[C@@H]1COCCN1c1nc(N2CCOC[C@H]2C)c2ccc(-c3cccc(C(=O)NCCOCCOCCOCCOCCOc4ccc(C(=O)NC5C(C)(C)C(Oc6ccc(C#N)c(Cl)c6)C5(C)C)cc4)c3)nc2n1` (stereo partly drawn) [Compound I-10]: 50 to 500 nM.
In general, GI50 refers to the concentration that inhibits growth by half. Take `Cc1c(NC(=O)c2ccc(C3CC3)cc2F)cc(F)cc1-c1ncnc(N)c1OCCN(C)C(=O)/C=C/CN(C)CCCN1CCN(CCCNS(=O)(=O)c2ccc(Nc3ncc(Br)c(Nc4cccc(F)c4C(N)=O)n3)cc2)CC1` [Compound I-79, 2-[[2-[4-[3-[4-[3-[[(E)-4-[2-[4-amino-6-[3-[(4-cyclopropyl-2-fluoro-benzoyl)amino]-5-fluoro-2-methyl-phenyl]pyrimidin-5-yl]oxyethyl-methyl-amino]-4-oxo-but-2-enyl]-methyl-amino]propyl]piperazin-1-yl]propylsulfamoyl]anilino]-5-bromo-pyrimidin-4-yl]amino]-6-fluoro-benzamide]: the concentration for 50% growth inhibition (GI50) is 1500 to 5000 nM with HeLa cells (Homo sapiens, 72 h) and above 5000 nM with HEK293 cells (Homo sapiens, 72 h). Moreover, the values for the Kd on BTK and at CDK9 were below 50 nM and 50 to 500 nM, respectively.
As for `CCc1cnn2c(NCc3ccc(OCCCN4CCN(CCCN(C)C/C=C/C(=O)N(C)CCOc5c(N)ncnc5-c5cc(F)cc(NC(=O)c6ccc(C7CC7)cc6F)c5C)CC4)nc3)cc(N3CCCC[C@H]3CCO)nc12` [Compound I-81, N-[3-[6-amino-5-[2-[[(E)-4-[3-[4-[3-[5-[[[3-ethyl-5-[(2S)-2-(2-hydroxyethyl)-1-piperidyl]pyrazolo[1,5-a]pyrimidin-7-yl]aminomethyl]-2-pyridyl]oxy]propyl]piperazin-1-yl]propyl-methyl-amino]but-2-enoyl]-methyl-amino]ethoxy]pyrimidin-4-yl]-5-fluoro-2-methyl-phenyl]-4-cyclopropyl-2-fluoro-benzamide], the GI50 in the experiment with HeLa cells and in the experiment with HEK293 cells was below 500 nM each time. For the same molecule, the Kd on BTK and at CDK9 was below 50 nM each time.
`CCc1cnn2c(NCc3ccc(OCCOCCOCCOC4CCN(C/C=C/C(=O)N(C)CCOc5c(N)ncnc5-c5cc(F)cc(NC(=O)c6ccc(C7CC7)cc6F)c5C)CC4)nc3)cc(N3CCCC[C@H]3CCO)nc12` [Compound I-82, (S,E)-N-(3-(6-amino-5-(2-(4-(4-(2-(2-(2-((5-(((3-ethyl-5-(2-(2-hydroxyethyl)piperidin-1-yl)pyrazolo[1,5-a]pyrimidin-7-yl)amino)methyl)pyridin-2-yl)oxy)ethoxy)ethoxy)ethoxy)piperidin-1-yl)-N-methylbut-2-enamido)ethoxy)pyrimidin-4-yl)-5-fluoro-2-methylphenyl)-4-cyclopropyl-2-fluorobenzamide]: the GI50 lay in the range of 500 to 1500 nM in the experiment on HeLa cells (Homo sapiens, 72 h) and 1500 to 5000 nM in the experiment on HEK293 cells (Homo sapiens, 72 h). Besides, the Kd at BTK is 50 to 500 nM; on CDK9, below 50 nM.
